pIC50: −log10 of the molar value.
system: MKN45 cells; assay: MKN45 cell proliferation assay (CellTiter-Glo); assay type: cell-based; conditions: Homo sapiens, MKN-45, 72 h; MKN45 cell line, 3 days incubation, at least duplicate experiments; read-out: Prolif. IC50
Procedure: The effect of inhibitors on the proliferation of MKN45 cells was determined using the following protocol. MKN45 cells were plated in Corning 3917 96-well white tissue culture treated plates in growth medium (RPMI, 10% FCS) at a density of 5000 cells/well in a total volume of 135 μL and incubated at 37° C., 5% CO2, 95% humidity overnight. The following day, one-tenth volume of a 10× concentration of compounds was added to the wells in an 8-point dilution series. The dilution series was composed of an initial 1:5 dilution of a 10 mM stock of compound in DMSO, followed by serial 1:4 dilutions in DMSO, then a 1:20 dilution in growth medium prior to the 1:10 dilution into the cell plate. Final DMSO concentration on the cells was 0.1%, there were control wells treated with both 0.1% DMSO and no DMSO. The typical dilution range is 10 μM to 0.6 nM. Once the compound was added to the cells, plates were incubated for 3 days at 37° C., 5% CO2 at 95% humidity. On the third day, after allowing all cells and reagents to come to room temperature, 25 μL of CellTiter-Glo reagent (Promega # G7573) was added to the wells. Plates were shaken on a platform for 10 minutes prior to reading luminescence for 0.1 seconds. The signal of the control wells was taken as 100% growth and growth inhibition was expressed as percent of control. IC50 values were determined from the percent of control data using a standard four-parameter model.
The IC50 values of exemplary compounds of the present invention determined in a cell proliferation assay using the MKN45 cell line according to the procedures described herein in at least duplicate experiments are abbreviated as follows and are shown in Table 1: A, IC50≦0.1 μM; B, 0.1 μM<IC50≦0.5 μM; C, 0.5 μM<IC50≦2 μM; D, IC50>2 μM; ND, not determined. The Example # of Table 1 corresponds to the compound example number as illustrated in the Experimental section above.
Treatment of this cell line with a selective MET inhibitor led to induction of apoptosis and inhibition of proliferation, whereas non-MET-amplified cell lines were not affected. Smolen et al., Proc. Natl. Acad. Sci. USA, 103(7):2316-2321 (2006). This cell line is thus “driven” by MET, and antiproliferative effects correlate very well with the inhibition of MET phosphorylation so that the cell proliferation IC50 values can be used as surrogate for the MET cell mechanistic IC50 values. Under the assay conditions described herein, the IC50 values correlate nearly 1:1.

Row | pIC50 | SMILES
1 | ≥ 7.00 | COc1ccc(F)c(Cl)c1[C@@H](C)c1n[nH]c2ncc(-c3cnn(C4CCNCC4)c3)cc12 [Example 12, 3-[(1R)-1-(2-chloro-3-fluoro-6-methoxyphenyl)ethyl]-5-[1-(piperidin-4-yl)-1H-pyrazol-4-yl]-1H-pyrazolo[3,4-b]pyridine]
2 | 6.30 to 7.00 | COc1ccc(F)c(Cl)c1[C@@H](C)c1n[nH]c2ncc(-c3cnn(C)c3)cc12 [Example 14, 3-[(1R)-1-(2-chloro-3-fluoro-6-methoxyphenyl)ethyl]-5-(1-methyl-1H-pyrazol-4-yl)-1H-pyrazolo[3,4-b]pyridine]
3 | < 5.70 | CC(c1c(Cl)ccc(F)c1Cl)c1c[nH]c2nnc(-c3cnn(C)c3)cc12 (stereo not drawn) [Example 15, 5-[1-(2,6-Dichloro-3-fluorophenyl)ethyl]-3-(1-methyl-1H-pyrazol-4-yl)-7H-pyrrolo[2,3-c]pyridazine]
4 | ≥ 7.00 | COc1ccc(F)c(Cl)c1C(C)c1n[nH]c2ncc(-c3cnn([C@H]4CC[C@H](O)CC4)c3)cc12 (relative stereo) [Example 9, trans-4-(4-{3-[1-(2-Chloro-3-fluoro-6-methoxyphenyl)ethyl]-1H-pyrazolo[3,4-b]pyridin-5-yl}-1H-pyrazol-1-yl)cyclohexanol]
5 | < 5.70 | COc1ccc(F)c(Cl)c1[C@H](C)c1n[nH]c2ncc(-c3cnn([C@H]4CC[C@H](O)CC4)c3)cc12 [Example 11, trans-4-(4-{3-[(1S)-1-(2-Chloro-3-fluoro-6-methoxyphenyl)ethyl]-1H-pyrazolo[3,4-b]pyridin-5-yl}-1H-pyrazol-1-yl)cyclohexanol]
6 | 6.30 to 7.00 | COc1ccc(F)c(Cl)c1[C@@H](C)c1n[nH]c2ncc(-c3cnn(C[C@H](O)CO)c3)cc12 [Example 13, (2S)-3-(4-{3-[(1R)-1-(2-chloro-3-fluoro-6-methoxyphenyl)ethyl]-1H-pyrazolo[3,4-b]pyridin-5-yl}-1H-pyrazol-1-yl)propane-1,2-diol]

— patent publication US20130072495A1, “FUSED BICYCLIC KINASE INHIBITORS” (OSI Pharmaceuticals, LLC, priority 2010, published 2013)
